# Values of other authors as cited in patent US20220016310A1, “ANTIMICROBIAL SHAPE MEMORY POLYMERS” (THE TEXAS A&M UNIVERSITY SYSTEM, priority 2016, published 2022).
# Test system: antibiotic-resistant bacteria (Enterobacter aerogenes, Escherichia coli, and Staphylococcus aureus)
# Conditions: bacteria obtained from hospitals
compound,measurement,value
O=C(O)C=Cc1ccccc1 [cinnamic acid],Susceptibility of antibiotic-resistant bacteria,susceptible
